Data published in the NIST ThermoML archive (doi:10.1021/je0604378).

Details: Liquid; for speed of sound: Pulse-echo method; for mass density: 101.33 kPa

CCCCCCCCCO [nonan-1-ol]
Details	speed of sound [m/s]
292.86 K, 45590 kPa	1579.5
292.86 K, 91180 kPa	1731.8
292.86 K, 101320 kPa	1762
292.87 K, 15200 kPa	1456.7
292.87 K, 30390 kPa	1520.8
292.87 K, 60790 kPa	1634
292.87 K, 75990 kPa	1684.4
292.88 K, 100 kPa	1382.8
297.95 K, 60790 kPa	1620
297.95 K, 91180 kPa	1718.7
297.95 K, 101320 kPa	1749.2
297.96 K, 15200 kPa	1440.2
297.96 K, 30390 kPa	1505.4
297.96 K, 45590 kPa	1564.5
297.96 K, 75990 kPa	1670.7
298.18 K, 100 kPa	1364.6
302.93 K, 45590 kPa	1550.1
302.93 K, 60790 kPa	1606
302.93 K, 75990 kPa	1657.6
302.93 K, 91180 kPa	1705.8
302.93 K, 101320 kPa	1736.7
302.94 K, 15200 kPa	1424.3
302.94 K, 30390 kPa	1490.2
303.16 K, 100 kPa	1347.5
307.91 K, 30390 kPa	1475.5
307.91 K, 45590 kPa	1536
307.91 K, 60790 kPa	1592.4
307.92 K, 15200 kPa	1408.5
307.92 K, 75990 kPa	1644.7
307.92 K, 91180 kPa	1693.2
307.92 K, 101320 kPa	1724.3
308.14 K, 100 kPa	1330.6
312.91 K, 15200 kPa	1392.8
312.91 K, 30390 kPa	1460.8
312.91 K, 45590 kPa	1522.2
312.91 K, 60790 kPa	1578.9
312.91 K, 75990 kPa	1632
312.91 K, 91180 kPa	1681.1
312.91 K, 101320 kPa	1712.3
313.11 K, 100 kPa	1313.8
318.29 K, 100 kPa	1296.3
318.38 K, 45590 kPa	1507.3
318.38 K, 60790 kPa	1564.6
318.38 K, 75990 kPa	1618.3
318.38 K, 91180 kPa	1667.8
318.38 K, 101320 kPa	1699.1
318.39 K, 15200 kPa	1375.9
318.39 K, 30390 kPa	1444.8
318.39 K, 45590 kPa	1507.3
318.39 K, 91180 kPa	1667.8

Details	mass density [kg/m3]
293.15 K	827.66
298.15 K	824.239
303.16 K	820.8
308.15 K	817.345
313.15 K	813.868
318.15 K	810.376

CCCCCCCCO [octan-1-ol]
Details	speed of sound [m/s]
292.77 K, 15230 kPa	1440.3
292.77 K, 30430 kPa	1505.2
292.77 K, 76010 kPa	1670.1
292.78 K, 60800 kPa	1619.3
292.79 K, 91200 kPa	1717.8
292.83 K, 45610 kPa	1564.1
292.83 K, 96120 kPa	1733
292.92 K, 100 kPa	1365.2
298.07 K, 76040 kPa	1656.5
298.07 K, 91190 kPa	1703.9
298.07 K, 97840 kPa	1724.3
298.09 K, 45610 kPa	1548.8
298.09 K, 60840 kPa	1604.6
298.13 K, 30410 kPa	1488.8
298.19 K, 15200 kPa	1422.6
298.2 K, 100 kPa	1347.1
303.15 K, 76000 kPa	1642.8
303.16 K, 91200 kPa	1691.2
303.18 K, 100 kPa	1330.2
303.2 K, 101340 kPa	1722.3
303.26 K, 60820 kPa	1590.2
303.27 K, 15200 kPa	1406.2
303.27 K, 45600 kPa	1533.9
303.28 K, 30410 kPa	1473.3
308.12 K, 91200 kPa	1679.2
308.12 K, 101320 kPa	1710.3
308.16 K, 100 kPa	1313.3
308.16 K, 91210 kPa	1679.1
308.17 K, 30400 kPa	1458.8
308.17 K, 76020 kPa	1630
308.18 K, 45600 kPa	1520.3
308.18 K, 60790 kPa	1576.8
308.19 K, 15210 kPa	1390.7
313.15 K, 100 kPa	1296.5
313.22 K, 91200 kPa	1666.8
313.22 K, 101340 kPa	1697.8
313.23 K, 76000 kPa	1616.6
313.26 K, 15200 kPa	1375.1
313.26 K, 30390 kPa	1443.9
313.26 K, 45590 kPa	1506.1
313.28 K, 60790 kPa	1563.5
318.33 K, 100 kPa	1279.2
318.82 K, 45600 kPa	1491
318.82 K, 60790 kPa	1549.2
318.82 K, 75990 kPa	1603.4
318.82 K, 101330 kPa	1684.9
318.83 K, 15200 kPa	1357.8
318.83 K, 91180 kPa	1653.7
318.84 K, 30390 kPa	1427.8

Details	mass density [kg/m3]
293.15 K	825.048
298.15 K	821.636
303.15 K	818.173
308.15 K	814.675
313.15 K	811.171
318.15 K	807.654
